Assays:
Aurora-B = Aurora-B (Homo sapiens, UniProt Q96GD4); assay: Aurora-B enzyme assay (identical protocol as Aurora-A); type: biochemical; settings: IC50 range class; read-out: Inhibitor Activity vs Aurora-B
Procedure: (§1) The ability of compounds to inhibit Aurora-A activity was measured using a simple microplate assay for Aurora-A activity, also suitable for high-throughput screening. In brief, γ-^33P-ATP and Aurora-A were incubated in a myelin basic protein (MBP)-coated Flashplate® to generate a scintillation signal. The plates were formatted to contain the inhibitor, controls, positive control (staurosporin) and blanks. After incubation at 37° C. for 1 hour and a subsequent wash procedure, the plates were read on a TopCount-NXT™.
(§2) IC50 values were determined by non-linear regression analysis, after fitting the data point results to the equation for sigmoidal dose response with variable slope (% activity against log concentration of compound), using Graphpad Prism software.
The Aurora-B enzyme assay follows the identical protocol as Aurora-A.

Aurora-A = molecular target: T1, Aurora-A (Homo sapiens, UniProt O14965); assay: Aurora-A enzyme assay (MBP-coated Flashplate, γ-33P-ATP); type: biochemical; settings: IC50 range class; read-out: Inhibitor Activity vs Aurora-A
T1 sequence (O14965 1-403): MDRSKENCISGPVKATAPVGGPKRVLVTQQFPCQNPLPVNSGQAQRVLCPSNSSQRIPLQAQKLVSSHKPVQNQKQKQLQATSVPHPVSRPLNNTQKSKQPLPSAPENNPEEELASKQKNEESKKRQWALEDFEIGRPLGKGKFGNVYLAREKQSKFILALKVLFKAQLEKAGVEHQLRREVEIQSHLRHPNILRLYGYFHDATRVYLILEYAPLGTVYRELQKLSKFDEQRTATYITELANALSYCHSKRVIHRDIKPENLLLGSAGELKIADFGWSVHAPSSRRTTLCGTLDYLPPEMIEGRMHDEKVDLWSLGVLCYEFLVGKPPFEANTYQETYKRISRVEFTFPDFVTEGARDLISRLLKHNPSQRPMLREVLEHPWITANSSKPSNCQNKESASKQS
Procedure: as §1
The 384-well basic Flashplate® and the γ-^33P-ATP were obtained from PerkinElmer Life Sciences, Boston, Mass.
as §2
Full experimental procedure for this assay can be found within the following reference: Sun, C Journal of Biomolecular Screening 9(5), 2004, 391.

U937 cell line = assay: Cell inhibition assay (SRB cell viability), U937; type: cell-based; settings: Homo sapiens, U-937, IC50 range class, 72 h, read-out: Inhibitor Activity vs U937 cell line
Method in brief: (§3)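 Log-phase cells seeded at 1000 cells/well, grown 24 h, then exposed to compounds (20 uM final) for 72 h. Viability read by sulphorhodamine B staining as % inhibition versus DMSO; IC50 from eight-point sigmoidal variable-slope fit.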

HCT 116 cell line = assay: Cell inhibition assay (SRB cell viability), HCT 116; type: cell-based; settings: Homo sapiens, IC50 range class, 72 h, read-out: Inhibitor Activity vs HCT 116 cell line
Method in brief: as §3

HUT cell line = assay: Cell inhibition assay (SRB cell viability), HUT; type: cell-based; settings: IC50 range class, 72 h, read-out: Inhibitor Activity vs HUT cell line
Method in brief: as §3

Aurora-B, sequence (Q96GD4 whole entry): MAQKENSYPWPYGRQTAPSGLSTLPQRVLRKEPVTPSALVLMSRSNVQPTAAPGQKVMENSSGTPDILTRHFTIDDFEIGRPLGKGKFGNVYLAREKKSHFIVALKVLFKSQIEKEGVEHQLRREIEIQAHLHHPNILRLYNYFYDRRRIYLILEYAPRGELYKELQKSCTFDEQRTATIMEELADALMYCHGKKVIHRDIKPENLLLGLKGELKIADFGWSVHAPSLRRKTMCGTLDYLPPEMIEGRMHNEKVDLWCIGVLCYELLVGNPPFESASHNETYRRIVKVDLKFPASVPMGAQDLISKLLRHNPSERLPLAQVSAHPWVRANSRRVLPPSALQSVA

Row | SMILES | IC50 (Aurora-B) | IC50 (Aurora-A) | IC50 (U937 cell line) | IC50 (HCT 116 cell line) | IC50 (HUT cell line)
1 | COc1cc2c(Oc3ccc(NC(=O)c4ccccc4)cc3)ccnc2cc1OCC[C@H](NC(=O)OC(C)(C)C)C(=O)O [Example 3] | < 2000 nM | < 2000 nM | – | – | –
2 | COc1cc2c(Oc3ccc(NC(=O)c4ccccc4)cc3)ccnc2cc1OCC[C@H](N)C(=O)O [Example 4, (S)-2-Amino-4-[4-(4-benzoylamino-phenoxy)-6-methoxy-quinolin-7-yloxy]-butyric acid] | < 2000 nM | < 2000 nM | – | – | –
3 | COc1cc2c(Nc3ccc(NC(=O)c4ccccc4)cc3)ccnc2cc1OCC[C@H](N)C(=O)O [Example 16, (S)-2-Amino-4-[4-(4-benzoylamino-phenylamino)-6-methoxy-quinolin-7-yloxy]-butyric acid] | 2000 to 5000 nM | > 5000 nM | – | – | –
4 | COc1cc2c(Sc3ccc(NC(=O)c4ccccc4)cc3)ccnc2cc1OCC[C@H](N)C(=O)O [Example 19, (S)-2-Amino-4-[4-(4-benzoylamino-phenylsulfanyl)-6-methoxy-quinolin-7-yloxy]-butyric acid] | < 2000 nM | < 2000 nM | – | – | –
5 | COc1cc2c(Sc3ccc(NC(=O)C4CC4)cc3)ccnc2cc1OCC[C@H](N)C(=O)O [Example 21, (S)-2-Amino-4-{4-[4-(cyclopropanecarbonyl-amino)-phenylsulfanyl]-6-methoxy-quinolin-7-yloxy}-butyric acid] | 2000 to 5000 nM | 2000 to 5000 nM | – | – | –
6 | COc1cc2c(Nc3cnc(NC(=O)c4ccccc4)nc3)ccnc2cc1OCC[C@H](N)C(=O)O [Example 26, (S)-2-Amino-4-[4-(2-benzoylamino-pyrimidin-5-ylamino)-6-methoxy-quinolin-7-yloxy]-butyric acid] | 2000 to 5000 nM | < 2000 nM | – | – | –
7 | COc1cc2c(Nc3ccc(NC(=O)c4ccccc4)cc3)c(C#N)cnc2cc1OCC[C@H](N)C(=O)OC1CCCC1 [Example 27] | – | > 5000 nM | 1000 to 5000 nM | 1000 to 5000 nM | < 1000 nM
8 | COc1cc2c(Nc3ccc(NC(=O)c4ccccc4)cc3)c(C#N)cnc2cc1OCC[C@H](NC(=O)OC(C)(C)C)C(=O)OC1CCCC1 [Example 28] | – | > 5000 nM | < 1000 nM | > 5000 nM | 1000 to 5000 nM
9 | COc1cc2c(Oc3ccc(NC(=O)c4ccccc4)cc3)ncnc2cc1OCC[C@H](N)C(=O)O [Example 30, (S)-2-Amino-4-[4-(4-benzoylamino-phenoxy)-6-methoxy-quinazolin-7-yloxy]-butyric acid] | 2000 to 5000 nM | 2000 to 5000 nM | – | – | –
10 | COc1cc2nccc(Oc3ccc(NC(=O)c4ccccc4)cc3)c2cc1OCC[C@H](N)C(=O)O [Example 36, (S)-2-Amino-4-[4-(4-benzoylamino-phenoxy)-7-methoxy-quinolin-6-yloxy]-butyric acid] | 2000 to 5000 nM | < 2000 nM | – | – | –
11 | COc1cc2c(Oc3ccc(NC(=O)c4ccccc4)cc3)ccnc2cc1OCC[C@H](NC(C)=O)C(=O)O [Example 43, (S)-2-Acetylamino-4-[4-(4-benzoylamino-phenoxy)-6-methoxy-quinolin-7-yloxy]-butyric acid] | < 2000 nM | < 2000 nM | – | – | –
12 | COc1cc2c(Oc3ccc(NC(=O)c4ccc(C(F)(F)F)cc4)cc3)ccnc2cc1OCC[C@H](N)C(=O)O [Example 54, (S)-2-Amino-4-{6-methoxy-4-[4-(4-trifluoromethyl-benzoylamino)-phenoxy]-quinolin-7-yloxy}-butyric acid] | < 2000 nM | < 2000 nM | – | – | –
13 | COc1ccc(C(=O)Nc2ccc(Oc3ccnc4cc(OCC[C@H](N)C(=O)O)c(OC)cc34)cc2)cc1 [Example 58, (S)-2-Amino-4-{6-methoxy-4-[4-(4-methoxy-benzoylamino)-phenoxy]-quinolin-7-yloxy}-butyric acid] | < 2000 nM | > 5000 nM | – | – | –
14 | COc1cc2c(Oc3ccc(NC(=O)C4CC4)cc3)ccnc2cc1OCC[C@H](N)C(=O)O [Example 60, (S)-2-Amino-4-{4-[4-(cyclopropanecarbonyl-amino)-phenoxy]-6-methoxy-quinolin-7-yloxy}-butyric acid] | > 5000 nM | > 5000 nM | – | – | –
15 | COc1cc2c(Oc3ccc(NC(=O)c4ccccc4F)cc3)ccnc2cc1OCC[C@H](N)C(=O)O [Example 62, (S)-2-Amino-4-{4-[4-(2-fluoro-benzoylamino)-phenoxy]-6-methoxy-quinolin-7-yloxy}-butyric acid] | < 2000 nM | 2000 to 5000 nM | – | – | –
16 | COc1cc2c(Oc3ccc(NC(=O)c4ccc(F)cc4)cc3)ccnc2cc1OCC[C@H](N)C(=O)O [Example 64, (S)-2-Amino-4-{4-[4-(4-fluoro-benzoylamino)-phenoxy]-6-methoxy-quinolin-7-yloxy}-butyric acid] | < 2000 nM | 2000 to 5000 nM | – | – | –
17 | COc1cc2c(Oc3ccc(NC(=O)c4ccc(Cl)cc4)cc3)ccnc2cc1OCC[C@H](N)C(=O)O [Example 67, (S)-2-Amino-4-{4-[4-(4-chloro-benzoylamino)-phenoxy]-6-methoxy-quinolin-7-yloxy}-butyric acid] | < 2000 nM | < 2000 nM | – | – | –
18 | COc1cc2c(Oc3ccc(NC(=O)c4cc(C(F)(F)F)ccc4F)cc3)ccnc2cc1OCC[C@H](N)C(=O)O [Example 69, (S)-2-Amino-4-{4-[4-(2-fluoro-5-trifluoromethyl-benzoylamino)-phenoxy]-6-methoxy-quinolin-7-yloxy}-butyric acid] | < 2000 nM | 2000 to 5000 nM | – | – | –
19 | COc1cc2c(Oc3ccc(NC(=O)c4cccs4)cc3)ccnc2cc1OCC[C@H](N)C(=O)O [Example 76, (S)-2-Amino-4-(6-methoxy-4-{4-[(thiophene-2-carbonyl)-amino]-phenoxy}-quinolin-7-yloxy)-butyric acid] | < 2000 nM | < 2000 nM | – | – | –
20 | COc1cc2c(Oc3ccc(C(=O)Nc4ccccc4)cc3)ccnc2cc1OCC[C@H](N)C(=O)O [Example 78, (S)-2-Amino-4-[6-methoxy-4-(4-phenylcarbamoyl-phenoxy)-quinolin-7-yloxy]-butyric acid] | 2000 to 5000 nM | 2000 to 5000 nM | – | – | –
21 | COc1cc2c(Oc3ccc(CC(=O)Nc4ccccc4)cc3)ccnc2cc1OCC[C@H](N)C(=O)O [Example 81, (S)-2-Amino-4-[6-methoxy-4-(4-phenylcarbamoylmethyl-phenoxy)-quinolin-7-yloxy]-butyric acid] | 2000 to 5000 nM | 2000 to 5000 nM | – | – | –
22 | COc1cc2c(Oc3ccc(CC(=O)Nc4ccccc4F)cc3)ccnc2cc1OCC[C@H](N)C(=O)O [Example 83, (S)-2-Amino-4-(4-{4-[(2-fluoro-phenylcarbamoyl)-methyl]-phenoxy}-6-methoxy-quinolin-7-yloxy)-butyric acid] | < 2000 nM | 2000 to 5000 nM | – | – | –
23 | COc1cc2c(Oc3ccc(CC(=O)Nc4cccc(F)c4)cc3)ccnc2cc1OCC[C@H](N)C(=O)O [Example 85, (S)-2-Amino-4-(4-{4-[(3-fluoro-phenylcarbamoyl)-methyl]-phenoxy}-6-methoxy-quinolin-7-yloxy)-butyric acid] | < 2000 nM | 2000 to 5000 nM | – | – | –
24 | COc1cc2c(Oc3ccc(CC(=O)Nc4ccc(F)cc4)cc3)ccnc2cc1OCC[C@H](N)C(=O)O [Example 87, (S)-2-Amino-4-(4-{4-[(4-fluoro-phenylcarbamoyl)-methyl]-phenoxy}-6-methoxy-quinolin-7-yloxy)-butyric acid] | < 2000 nM | > 5000 nM | – | – | –
25 | COc1cc2c(Oc3ccc(CC(=O)Nc4ccc(F)cc4F)cc3)ccnc2cc1OCC[C@H](N)C(=O)O [Example 89, (S)-2-Amino-4-(4-{4-[(2,4-difluoro-phenylcarbamoyl)-methyl]-phenoxy}-6-methoxy-quinolin-7-yloxy)-butyric acid] | < 2000 nM | > 5000 nM | – | – | –
26 | COc1ccc(NC(=O)Cc2ccc(Oc3ccnc4cc(OCC[C@H](N)C(=O)O)c(OC)cc34)cc2)cc1 [Example 91, (S)-2-Amino-4-(6-methoxy-4-{4-[(4-methoxy-phenylcarbamoyl)-methyl]-phenoxy}-quinolin-7-yloxy)-butyric acid] | < 2000 nM | 2000 to 5000 nM | – | – | –
27 | COc1cc2c(Oc3ccc(NC(=O)Nc4ccc(C(F)(F)F)cc4)cc3)ccnc2cc1OCC[C@H](N)C(=O)O [Example 94, (S)-2-Amino-4-(6-methoxy-4-{4-[3-(4-trifluoromethyl-phenyl)-ureido]-phenoxy}-quinolin-7-yloxy)-butyric acid] | < 2000 nM | < 2000 nM | – | – | –
